According to patent US12679836B2, “4H-pyrrolo[3,2-c]pyridin-4-one compounds” (Bayer Aktiengesellschaft, priority 2019, dated 2026):

What was measured:
[1] = biological target: T1, EGFR with insertion of SVD between D770 and N771 (EGFR ins SVD) (Homo sapiens, UniProt P00533, DUP768-770); test: Exon20-Mutant-EGFR(D770_N771insSVD) kinase assay (TR-FRET); assay type: biochemical; details: 2 mM ATP, several values per example where printed
T1 construct: made in house; host or cells: Sf9 insect cells (baculovirus)
T1 sequence (P00533 with tags, fused parts or gaps DUP768-770): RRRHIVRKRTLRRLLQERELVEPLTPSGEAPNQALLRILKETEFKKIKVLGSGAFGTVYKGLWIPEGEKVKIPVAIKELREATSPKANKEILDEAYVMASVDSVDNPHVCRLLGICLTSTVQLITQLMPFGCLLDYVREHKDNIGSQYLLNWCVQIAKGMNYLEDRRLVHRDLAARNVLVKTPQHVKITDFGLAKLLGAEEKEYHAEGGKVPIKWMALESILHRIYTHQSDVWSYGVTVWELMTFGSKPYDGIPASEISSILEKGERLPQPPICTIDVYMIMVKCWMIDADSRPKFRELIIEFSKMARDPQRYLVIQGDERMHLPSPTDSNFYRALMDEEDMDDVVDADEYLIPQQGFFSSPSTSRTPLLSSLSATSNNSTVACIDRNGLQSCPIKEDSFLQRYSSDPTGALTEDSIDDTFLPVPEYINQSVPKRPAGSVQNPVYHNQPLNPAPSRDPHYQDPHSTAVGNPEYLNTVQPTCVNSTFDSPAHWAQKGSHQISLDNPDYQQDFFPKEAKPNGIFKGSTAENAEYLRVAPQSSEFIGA

[2] = biological target: T2, Bub1 (Homo sapiens, UniProt O43683); test: Bub1 TR-FRET high ATP kinase assay; assay type: biochemical; details: Bub1 high ATP (2 mM) IC50 [mol/l], 2 mM ATP
T2 construct: catalytic domain of human Bub1 (amino acids 704-1085); His6 (N); made in house; host or cells: Hi5 insect cells
T2 sequence (O43683 704-1085): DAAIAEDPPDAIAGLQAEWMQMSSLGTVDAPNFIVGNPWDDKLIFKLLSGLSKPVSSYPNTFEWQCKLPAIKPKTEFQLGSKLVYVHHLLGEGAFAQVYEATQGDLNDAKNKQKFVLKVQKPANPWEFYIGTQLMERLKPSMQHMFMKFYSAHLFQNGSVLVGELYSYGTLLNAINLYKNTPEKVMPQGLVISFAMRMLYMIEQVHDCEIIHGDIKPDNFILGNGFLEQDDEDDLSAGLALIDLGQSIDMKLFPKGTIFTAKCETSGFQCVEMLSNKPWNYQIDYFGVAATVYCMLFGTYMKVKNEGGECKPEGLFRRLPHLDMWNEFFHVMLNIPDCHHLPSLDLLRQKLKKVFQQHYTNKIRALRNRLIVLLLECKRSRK
From the text: Bub1 High ATP Kinase Assay
Bub1-inhibitory activity of compounds of the present invention at a high ATP concentration was quantified employing the Bub1 TR-FRET high ATP kinase assay as described in the following paragraphs.
N-terminally His6-tagged recombinant catalytic domain of human Bub1 (amino acids 704-1085), expressed in insect cells (Hi5) and purified by Ni-NTA affinity chromatography and subsequent size exclusion chromatography, was used as enzyme. As substrate for the kinase reaction the biotinylated peptide biotin-Ahx-[…]—SEQ ID 7 (C-terminus in amid form) was used which can be purchased e.g. form the company Biosyntan (Berlin, Germany).

[3] = biological target: Ba/F3-EGFR-insSVD cells (Homo sapiens, UniProt P00533, DUP768-770, cells depend on it); test: Ba/F3 cell survival assay (Cell Titer-Glo), EGFR-insSVD; assay type: cell-based; details: without IL-3, with 10 ng/mL EGF, 48 h; read-out: BA/F3 (insSVD) IC50
Sequence of Ba/F3-EGFR-insSVD cells (P00533 with tags, fused parts or gaps DUP768-770): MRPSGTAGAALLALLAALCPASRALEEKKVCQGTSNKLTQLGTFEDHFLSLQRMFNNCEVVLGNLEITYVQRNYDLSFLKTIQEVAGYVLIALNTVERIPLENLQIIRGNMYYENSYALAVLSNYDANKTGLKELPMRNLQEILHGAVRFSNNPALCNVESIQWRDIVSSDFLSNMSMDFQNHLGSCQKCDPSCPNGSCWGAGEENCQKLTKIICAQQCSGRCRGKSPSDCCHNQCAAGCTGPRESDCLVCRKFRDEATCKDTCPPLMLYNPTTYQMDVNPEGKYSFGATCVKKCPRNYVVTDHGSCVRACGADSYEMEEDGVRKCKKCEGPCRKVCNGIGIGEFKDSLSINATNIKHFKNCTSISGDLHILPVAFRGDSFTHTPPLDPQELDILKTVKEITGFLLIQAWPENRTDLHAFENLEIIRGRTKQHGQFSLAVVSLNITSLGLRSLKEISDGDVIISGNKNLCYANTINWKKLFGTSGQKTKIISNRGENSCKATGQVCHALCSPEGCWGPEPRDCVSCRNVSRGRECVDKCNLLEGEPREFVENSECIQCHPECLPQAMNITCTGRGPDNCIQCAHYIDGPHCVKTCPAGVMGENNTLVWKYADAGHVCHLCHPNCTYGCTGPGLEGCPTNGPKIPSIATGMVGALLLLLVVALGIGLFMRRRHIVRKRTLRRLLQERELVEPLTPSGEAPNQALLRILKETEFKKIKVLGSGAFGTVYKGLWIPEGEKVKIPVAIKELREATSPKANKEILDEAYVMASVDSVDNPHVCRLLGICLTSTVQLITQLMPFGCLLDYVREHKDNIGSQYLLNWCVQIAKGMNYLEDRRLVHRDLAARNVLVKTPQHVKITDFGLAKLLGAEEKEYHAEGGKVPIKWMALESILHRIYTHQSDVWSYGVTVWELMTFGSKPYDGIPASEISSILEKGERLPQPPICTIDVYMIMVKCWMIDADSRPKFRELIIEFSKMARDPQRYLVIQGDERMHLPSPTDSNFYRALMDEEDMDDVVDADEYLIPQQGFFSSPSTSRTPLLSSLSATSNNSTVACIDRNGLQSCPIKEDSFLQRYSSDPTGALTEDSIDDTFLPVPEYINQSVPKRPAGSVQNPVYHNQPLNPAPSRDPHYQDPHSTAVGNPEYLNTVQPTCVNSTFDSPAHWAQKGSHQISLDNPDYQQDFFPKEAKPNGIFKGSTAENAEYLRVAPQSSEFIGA
Method: (§1) 293T cells from ATCC were transfected with pBABEpuro expression constructs for WT EGFR or EGFR-insSVD and pCL-Eco packaging vector using Fugene-6 transfection reagent from Promega. Plates were incubated at 37° C. for 48 h. Retrovirus was harvested by filtering the media supernatant through a 0.45 μm filter.
(§2) Ba/F3 cells purchased from DSMZ were grown in RPMI+10% FBS+10 ng/mL IL-3 and infected with filtered retroviral supernatant at a 1:2 dilution. Polybrene was added to a concentration of 8 μg/mL, plates were spun for 90 min, and incubated overnight at 37° C. 2 μg/mL puromycin was added to the infected cells 24 h after infection and cells were continually grown in the presence of puromycin and 10 ng/mL IL-3. Following stably expressing Ba/F3 cell lines were generated: Ba/F3-EGFR-WT, Ba/F3-EGFR-insSVD, (Ba/F3-vector-control).
(§3) For cell survival assays, Ba/F3 cells were grown to a density of 1-2 million cells per mL, spun down and resuspended in media without IL-3, and replated at a concentration 200,000-500,000 cells per mL. The cells ectopically expressing WT EGFR or EGFR-insSVD were plated with 10 ng/mL Millipore Culture grade EGF. The cells ectopically expressing pBABEpuro empty vector were plated with 10 ng/mL IL-3. 2 days later, cells were plated in 50 μL in a 384 well plate at a concentration of 4000 cells per well for cells assayed in the absence of IL-3 and 2000 cells per well for cells assayed in the presence of IL-3. 100 nL of compound was added to each well using a 100 nL pin head, and plates were incubated at 37° C. for 48 h.
(§4) Cell viability was measured by adding 20 μL of Cell Titer-Glo Luminescent Cell Viability Reagent diluted 1:3 in PBS. Plates were sealed with Perkin Elmer Top-Seal, inverted several times to mix, and immediately centrifuged at 1000 rpm for 2 min. Plates were incubated in low light conditions for 8-10 min and luminescence was measured.

[4] = biological target: Ba/F3-EGFR-WT cells (Homo sapiens, UniProt P00533); test: Ba/F3 cell survival assay (Cell Titer-Glo), WT EGFR; assay type: cell-based; details: without IL-3, with 10 ng/mL EGF, 48 h; read-out: BA/F3 (wild type) IC50
Sequence of Ba/F3-EGFR-WT cells (P00533 whole entry, change not shown): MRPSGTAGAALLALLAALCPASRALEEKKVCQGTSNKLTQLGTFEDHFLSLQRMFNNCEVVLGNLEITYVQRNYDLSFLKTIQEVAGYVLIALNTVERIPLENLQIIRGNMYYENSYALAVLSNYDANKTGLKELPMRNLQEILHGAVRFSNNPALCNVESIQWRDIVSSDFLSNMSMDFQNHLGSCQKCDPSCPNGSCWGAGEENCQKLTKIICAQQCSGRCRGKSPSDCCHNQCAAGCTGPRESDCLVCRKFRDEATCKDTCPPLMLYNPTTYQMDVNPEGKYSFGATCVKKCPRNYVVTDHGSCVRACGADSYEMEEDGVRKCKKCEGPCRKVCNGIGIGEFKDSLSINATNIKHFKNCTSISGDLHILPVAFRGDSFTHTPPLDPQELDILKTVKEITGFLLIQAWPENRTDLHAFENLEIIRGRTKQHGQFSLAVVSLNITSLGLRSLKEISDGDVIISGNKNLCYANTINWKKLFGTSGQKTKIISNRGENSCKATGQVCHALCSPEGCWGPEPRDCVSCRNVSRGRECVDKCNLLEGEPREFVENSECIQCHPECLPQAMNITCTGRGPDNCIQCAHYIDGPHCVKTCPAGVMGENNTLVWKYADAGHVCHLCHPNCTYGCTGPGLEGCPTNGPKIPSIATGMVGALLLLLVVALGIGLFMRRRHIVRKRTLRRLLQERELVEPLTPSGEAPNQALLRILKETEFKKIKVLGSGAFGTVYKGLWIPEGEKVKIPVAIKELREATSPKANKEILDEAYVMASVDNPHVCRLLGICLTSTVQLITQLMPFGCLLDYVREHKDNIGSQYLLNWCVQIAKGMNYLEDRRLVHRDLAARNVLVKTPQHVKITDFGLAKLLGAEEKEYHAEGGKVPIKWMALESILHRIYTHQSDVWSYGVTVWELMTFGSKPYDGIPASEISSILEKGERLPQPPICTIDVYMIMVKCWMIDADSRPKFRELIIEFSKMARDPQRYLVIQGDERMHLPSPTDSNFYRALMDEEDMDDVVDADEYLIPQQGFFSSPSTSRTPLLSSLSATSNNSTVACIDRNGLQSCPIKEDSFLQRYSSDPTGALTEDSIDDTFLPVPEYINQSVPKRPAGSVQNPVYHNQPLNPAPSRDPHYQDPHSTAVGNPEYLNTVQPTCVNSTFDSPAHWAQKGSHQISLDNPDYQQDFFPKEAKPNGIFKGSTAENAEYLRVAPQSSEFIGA
Method: as §1, §2, §3, §4

Compound | mutEGFR (D770_N771insSVD) kinase assay IC50 [1] [pM] | IC50 [2] [µM] | GI50 [3] [nM] | GI50 [4] [nM]
COc1c(Cl)cccc1Nc1c(-c2ccncc2O[C@@H](C)C2COCCO2)[nH]c2c1C(=O)NCC2 (mixture of isomers) [Example 57, 3-(3-chloro-2-methoxyanilino)-2-{3-[(1S)-1-(1,4-dioxan-2-yl)ethoxy]pyridin-4-yl}-1,5,6,7-tetrahydro-4H-pyrrolo[3,2-c]pyridin-4-one] | 269 | 14 | 28 | 539
COc1c(F)cccc1Nc1c(-c2ccncc2OCC2CN(C)CCO2)[nH]c2c1C(=O)NCC2 (single isomer, unassigned) [Example 13, 3-(3-fluoro-2-methoxyanilino)-2-{3-[(4-methylmorpholin-2-yl)methoxy]pyridin-4-yl}-1,5,6,7-tetrahydro-4H-pyrrolo[3,2-c]pyridin-4-one] | 139 | > 20 | – | 1520
COc1c(Cl)cccc1Nc1c(-c2ccncc2OCC2COC(C)(C)CO2)[nH]c2c1C(=O)NCC2 (single isomer, unassigned) [Example 31, 3-(3-chloro-2-methoxyanilino)-2-{3-[(5,5-dimethyl-1,4-dioxan-2-yl)methoxy]pyridin-4-yl}-1,5,6,7-tetrahydro-4H-pyrrolo[3,2-c]pyridin-4-one] | 133 | – | – | –
COc1c(F)cccc1Nc1c(-c2ccncc2OCCC2COCCO2)[nH]c2c1C(=O)NCC2 (single isomer, unassigned) [Example 36, 2-(3-{2-[1,4-dioxan-2-yl]ethoxy}pyridin-4-yl)-3-(3-fluoro-2-methoxyanilino)-1,5,6,7-tetrahydro-4H-pyrrolo[3,2-c]pyridin-4-one] | – | 2.82 | 68.1 | 845
Cc1c(Cl)cccc1Nc1c(-c2ccncc2OCC2COC(C)(C)CO2)[nH]c2c1C(=O)NCC2 (single isomer, unassigned) [Example 45, 3-(3-chloro-2-methyl-anilino)-2-[3-[(5,5-dimethyl-1,4-dioxan-2-yl)methoxy]-4-pyridyl]-1,5,6,7-tetrahydropyrrolo[3,2-c]pyridin-4-one] | 492 | > 5.71 | – | 1640
COc1c(Cl)cccc1Nc1c(-c2ccncc2O[C@@H](C)C2COCCO2)[nH]c2c1C(=O)NCC2 (single isomer, unassigned) [Example 58, 3-(3-chloro-2-methoxyanilino)-2-{3-[(1 S)-1-(1,4-dioxan-2-yl)ethoxy]pyridin-4-yl}-1,5,6,7-tetrahydro-4H-pyrrolo[3,2-c]pyridin-4-one] | – | 13.9 | 29.8 | 519
COc1c(Cl)cccc1Nc1c(-c2ccncc2O[C@H](C)C2COCCO2)[nH]c2c1C(=O)NCC2 (single isomer, unassigned) [Example 61] | 935 | – | 300 | 3770
COc1c(Cl)cccc1Nc1c(-c2ccncc2OCC2COC(C)(C)CO2)[nH]c2c1C(=O)NCC2 (stereo not shown) [Example 30, 3-(3-chloro-2-methoxyanilino)-2-{3-[(5,5-dimethyl-1,4-dioxan-2-yl)methoxy]pyridin-4-yl}-1,5,6,7-tetrahydro-4H-pyrrolo[3,2-c]pyridin-4-one] | – | > 20 | 19.3 | 407
Cc1c(Cl)cccc1Nc1c(-c2ccncc2OCC2COC(C)(C)CO2)[nH]c2c1C(=O)NCC2 (stereo not shown) [Example 44, 3-(3-chloro-2-methyl-anilino)-2-[3-[(5,5-dimethyl-1,4-dioxan-2-yl)methoxy]-4-pyridyl]-1,5,6,7-tetrahydropyrrolo[3,2-c]pyridin-4-one] | 150 | – | 25.7 | –
Cc1c(F)cccc1Nc1c(-c2ccncc2OCC2COCCO2)[nH]c2c1C(=O)NCC2 (stereo not shown) [Example 47, 2-[3-(1,4-dioxan-2-ylmethoxy)-4-pyridyl]-3-(3-fluoro-2-methyl-anilino)-1,5,6,7-tetrahydropyrrolo[3,2-c]pyridin-4-one] | – | 5.01 | 41.6 | 715
